The text below walks through data of ChEMBL document CHEMBL1123448, “Studies in antifertility agents. 50. Stereoselective binding of d- and l-centchromans to estrogen receptors and their antifertility activity” (1986).

The target of assay [1] is T1, Estrogen receptor (Rattus norvegicus) (UniProt P06211+Q62986). Description: Estrogenic activity as percent of control at 50 ug subcutaneous dose. The format is functional.
The target in assay [2] is T1, Estrogen receptor (Rattus norvegicus). Briefly: Antiuterotrophic activity in immature rats at 5 ug. Format: functional.
Assay [3] has the same target. Description: Estrogenic activity in immature rats and assayed as uterine weight gain at 0.05 ug subcutaneous dose. Format: functional.
The target is the same in assay [4].
Assay [5] has the same target. Briefly: Estrogenic activity as percent of control at 5 ug subcutaneous dose. Format: functional.
Assay [6] shares this target. Briefly: Estrogenic activity in immature rats and assayed as uterine weight gain at 100 ug subcutaneous dose. Format: functional.
Assay [7] has the same target. Description: Estrogenic activity in immature rats and assayed as uterine weight gain at 5 ug subcutaneous dose. Format: functional.
For assay [8] the target is unchanged. Description: Estrogenic activity as percent of control at 100 ug subcutaneous dose. The format is functional.
For assay [9] the target is unchanged. Briefly: Antiuterotrophic activity in immature rats at 100 ug. Format: functional.
For assay [10] the target is unchanged. Description: Anti-uterotrophic activity in immature rats at 5 ug. The format is functional.
For assay [11] the target is unchanged. Briefly: Estrogenic activity in immature rats and assayed as uterine weight gain at 50 ug subcutaneous dose. Format: functional.
Assay [12] shares this target. Briefly: Anti-uterotrophic activity in immature rats at 100 ug. Format: functional.
Assay [13] has the same target. Description: Antiuterotrophic activity in immature rats at 50 ug. Format: functional.
For assay [14] the target is unchanged. Description: Anti-uterotrophic activity in immature rats at 50 ug. The format is functional.
The species entered for the next assay is Rattus norvegicus. Briefly: Antiimplantation activity in sperm-positive female albino rats mated to coeval males of proven fertility. Format: functional.
The target of assay [15] is T1, Estrogen receptor (Rattus norvegicus). Description: Estrogenic activity in immature rats and assayed as uterine weight gain at 500 ug subcutaneous dose. Format: functional.
The target is the same in assay [16]. Description: Estrogenic activity as percent of control at 500 ug subcutaneous dose. Format: functional.

`COc1ccc2c(c1)OC(C)(C)C(c1ccccc1)C2c1ccc(OCCN2CCCC2)cc1` (racemic): the results for the Control in [1], in assay [5] and in [8] were 281%, 174% and 288%, respectively. The Stimulation in assay [2] turned out to be 82%; in assay [9] it was 87%; in [13], 94%. For the same compound, the Uterine wet weight in assay [3] amounted to 16.6; in [4] it was 16.3; in assay [6], 49; in assay [7], 29.5; in [10] it was 52.5; in assay [11], 47.7. For the same compound, the Uterine wet weight in [12] turned out to be 56; in assay [14], 60.3. In addition, the results for the inhibition in assay [10], in assay [12] and in [14] were 23.8%, 16.7% and 8.1%, respectively.
The compound `COc1ccc2c(c1)OC(C)(C)C(c1ccccc1)C2c1ccc(OCCN2CCCC2)cc1` (racemic) [ORMELOXIFENE] yielded an MED in the assay listed under Rattus norvegicus of 0.25 mg/kg.
On to `COc1ccc2c(c1)OC(C)(C)C(c1ccccc1)C2c1ccc(OCCN2CCCC2)cc1` (stereo in doubt; form 1), for which the Control is 238% in [1], 187% in [5], 238% in assay [8] and 267% in assay [16]. The figures for the Stimulation in assay [2], in assay [9] and in assay [13] were 99%, 80% and 105%, respectively. For the same compound, the Uterine wet weight in assay [3] stood at 16.2; in assay [4], 16.8; in [6], 40.4; in [7], 31.8; in [10], 52.3; in assay [15], 45.4. Moreover, the results for the Uterine wet weight in assay [11], in assay [12] and in assay [14] were 40.5, 42.3 and 55.7, respectively. Also, the figures for the inhibition in assay [10] and in assay [12] were 1.9% and 28.4%, respectively.
`COc1ccc2c(c1)OC(C)(C)C(c1ccccc1)C2c1ccc(OCCN2CCCC2)cc1` (stereo in doubt; form 1) [ORMELOXIFENE]: the MED in the assay filed under Rattus norvegicus amounted to 5 mg/kg.
Consider `COc1ccc2c(c1)OC(C)(C)C(c1ccccc1)C2c1ccc(OCCN2CCCC2)cc1` (stereo in doubt; form 2), for which the Control in assay [1] was 286%; in assay [5] it was 222%; in [8], 303%. Further, the Stimulation in [2] was found to be 77%; in assay [9], 68%; in assay [13], 77%. In addition, the Uterine wet weight in [3] came to 15.8; in assay [4] it was 25.8; in [6], 51.4; in assay [7] it was 37.8; in assay [10], 52.7; in [11] it was 48.6. The Uterine wet weight in assay [12] came out at 46.4; in assay [14], 52.6. The inhibition (commonly the percentage by which the read-out fell short of the control) in assay [10] was 28.7%; in [12], 40.3%; in [14], 28.7%.
`COc1ccc2c(c1)OC(C)(C)C(c1ccccc1)C2c1ccc(OCCN2CCCC2)cc1` (stereo in doubt; form 2) [ORMELOXIFENE] had an MED in the assay filed under Rattus norvegicus of 0.15 mg/kg.
Turning to `COc1ccc2c(c1)CCC(c1ccccc1)=C2c1ccc(OCCN2CCCC2)cc1` [NAFOXIDINE], the minimal effective dose in the assay filed under Rattus norvegicus (Rattus norvegicus, read-out: MED) was 0.1 mg/kg.
